The text below walks through data of paper PMC6245188, “Isolation and Characterization of Phenolic Compounds from the Leaves of Salix matsudana” (Molecules, 2008).

A word on the IC50: it is the concentration that gives 50% inhibition.

Like-named read-outs stand apart in the source and are kept apart here.

In one experiment the target is T1, COX-1 (Ovis aries, UniProt P05979).
T1 construct: purchased Cayman Chemical (Michigan, US)
T1 sequence (P05979 25-600): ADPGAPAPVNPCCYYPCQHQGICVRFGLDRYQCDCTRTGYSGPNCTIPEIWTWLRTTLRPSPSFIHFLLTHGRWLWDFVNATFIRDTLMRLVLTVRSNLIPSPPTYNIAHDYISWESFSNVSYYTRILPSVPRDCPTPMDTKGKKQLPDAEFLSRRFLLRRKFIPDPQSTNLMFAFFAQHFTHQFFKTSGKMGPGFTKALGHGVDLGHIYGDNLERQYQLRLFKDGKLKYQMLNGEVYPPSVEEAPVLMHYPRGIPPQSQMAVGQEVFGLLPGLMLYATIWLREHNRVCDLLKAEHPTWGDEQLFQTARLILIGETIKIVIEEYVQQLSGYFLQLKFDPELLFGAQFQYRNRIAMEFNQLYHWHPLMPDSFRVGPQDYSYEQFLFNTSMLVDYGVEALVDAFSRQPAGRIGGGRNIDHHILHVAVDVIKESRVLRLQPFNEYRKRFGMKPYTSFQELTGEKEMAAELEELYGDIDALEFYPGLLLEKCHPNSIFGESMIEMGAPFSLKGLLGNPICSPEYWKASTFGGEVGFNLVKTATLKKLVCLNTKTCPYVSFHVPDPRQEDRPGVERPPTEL
Nature of the experiment: Effect on cyclooxygenase-1 (PGE2 production from 14C-arachidonic acid, HPLC radioactivity detection). The format is biochemical. The procedure: (§1) COX-1 and COX-2 were purchased from Cayman Chemical (Michigan, US). The ^14C-labeled arachidonic acid (>200 µCi, NEN) was purchased from New England Nuclear Co. (Boston, US). Other chemicals and reagents were purchased from the Chinese Chemical Group (Beijing, P.R. China).
(§2) The effect of the tested compounds on cyclooxygenase-1 and -2 (COX-1 and -2) was determined by measuring PGE2 production. […] 1-^14C Arachidonic acid (10 µL) was added to start the reaction. The mixture was incubated for 30 min at 37 °C, then, the reaction was terminated by adding the reaction mixture (20 µL) to 30 µM indomethacin (200 µL). Arachidonic acid and its radio-labeled metabolites were separated and determined by reversed-phase HPLC using a Berthold radioactivity monitor. Inhibition refers to reduction of PGE2 formation, in comparison to a blank run without inhibitor. The results are means of three independent experiments.

Another experiment deals with T2, COX-2 (Homo sapiens, UniProt P35354).
T2 construct: purchased Cayman Chemical (Michigan, US)
T2 sequence (P35354 18-604): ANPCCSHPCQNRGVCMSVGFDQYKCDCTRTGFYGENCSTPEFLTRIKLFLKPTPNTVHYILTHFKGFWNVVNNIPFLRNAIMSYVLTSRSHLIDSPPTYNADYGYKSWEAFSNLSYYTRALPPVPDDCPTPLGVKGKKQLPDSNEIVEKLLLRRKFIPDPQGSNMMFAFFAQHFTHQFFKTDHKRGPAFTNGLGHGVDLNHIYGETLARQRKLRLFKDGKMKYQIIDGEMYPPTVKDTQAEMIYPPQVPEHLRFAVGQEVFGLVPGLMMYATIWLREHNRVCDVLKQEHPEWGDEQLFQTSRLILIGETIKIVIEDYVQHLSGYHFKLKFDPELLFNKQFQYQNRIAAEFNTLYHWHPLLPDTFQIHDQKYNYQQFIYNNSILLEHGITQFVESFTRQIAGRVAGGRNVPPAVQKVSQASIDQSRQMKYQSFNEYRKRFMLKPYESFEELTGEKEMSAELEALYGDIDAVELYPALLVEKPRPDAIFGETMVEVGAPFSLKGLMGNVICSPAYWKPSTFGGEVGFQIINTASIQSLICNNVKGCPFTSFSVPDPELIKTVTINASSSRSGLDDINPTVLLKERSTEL
Nature of the experiment: Effect on cyclooxygenase-2 (PGE2 production from 14C-arachidonic acid, HPLC radioactivity detection). The format is biochemical. Particulars: for IC50 / IC50 of COX-2: means of three determinations, 30 min at 37 °C, Tris-HCl pH 8.0, I.A. = Inactive; for inhibitory effect on COX-2 (in words): qualitative statement. The procedure: as §1, §2

[1] abbreviates: means of three determinations, 30 min at 37 °C, Tris-HCl pH 8.0, I.A. = Inactive, read-out: IC50 of COX-1.
Where [2] appears, read: means of three determinations, 30 min at 37 °C, Tris-HCl pH 8.0, I.A. = Inactive.

Regarding `CC1(C)C=Cc2c(cc(O)c3c(=O)c(OC4OC(CO)C(O)C(O)C4O)c(-c4ccc(O)c(O)c4)oc23)O1` [Compound 1, 7,8-(2'', 2''-dimethylpyrano)-5, 3', 4'-trihydroxy-flavone-3-O-β-D-glucoside], the IC50 on COX-1 (setting [1]) came out at 153 µM; at COX-2, 27.3 µM. Moreover, the “inhibitory effect on COX-2 (in words)” value at COX-2 is “potent inhibitory effect”.

`O=c1cc(-c2ccc(O)c(O)c2)oc2cc(O)cc(O)c12` [Compound 2, luteolin]: on COX-1 (setting [2]), the “IC50 of COX-1” value is given as “I.A.^b”. Besides, the “IC50 of COX-2” value at COX-2 was “I.A”.

In the case of `O=c1c(O[C@@H]2O[C@H](CO)[C@@H](O)[C@H](O)[C@H]2O)c(-c2ccc(O)c(O)c2)oc2cc(O)cc(O)c12` [Compound 3, isoquercitrin], at COX-1, the IC50 was 103 µM.

In the case of `COc1ccc2c(=O)cc(-c3ccccc3)oc2c1` [Compound 4, 7-methoxyflavone], the IC50 on COX-1 (setting [1]) was 99.1 µM; at COX-2 it was 169 µM.

Consider `O=c1cc(-c2ccc(O)c(O)c2)oc2cc(O[C@@H]3O[C@H](CO)[C@@H](O)[C@H](O)[C@H]3O)cc(O)c12` [Compound 5, luteolin 7-O-glucoside], for which the concentration for half-maximal inhibition (IC50) at COX-1 (setting [1]) is 92.3 µM. At COX-2, the IC50 was 39.1 µM and the “inhibitory effect on COX-2 (in words)” value was “potent inhibitory effect”.

Consider `O=c1cc(-c2ccc(O)cc2)oc2cc(O)ccc12` [Compound 6, 4',7-dihydroxyflavone], for which, at COX-1 (setting [2]), the “IC50 of COX-1” value is recorded as “I.A”. Further, at COX-2, the IC50 was 58.8 µM and the “inhibitory effect on COX-2 (in words)” value is “potent inhibitory effect”.

Take `COc1cc(O)cc(OC)c1OC1OC(CO)C(O)C(O)C1O` (stereo not drawn) [Compound 7, leonuriside A]: the IC50 on COX-1 (setting [1]) stood at 195 µM; on COX-2, 200 µM.

For the compound `CC(=O)c1ccc(OC2OC(CO)C(O)C(O)C2O)cc1` (stereo not drawn) [Compound 8, piceoside], on COX-1 (setting [1]), the IC50 came to 217 µM. At COX-2, the “IC50 of COX-2” value is “I.A”.
